Among the data in PubChem BioAssay AID270 (DTP/NCI, 2004) are T/C values, retold here.

The test deals with BDF1 mice, s.c. Lewis lung carcinoma, T/C %. Put plainly: NCI In Vivo Anticancer Drug Screen. Data for tumor model Lewis Lung Carcinoma (subcutaneous) in B6D2F1 (BDF1) mice. The gist of the method: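 Transplanted tumors grown in mice; compound vs vehicle dosing; endpoint survival or tumor size; ratio T/C.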
Where [1] appears, read: endpoint: mean tumor weight, dose: 50.0 mg/kg/injection, schedule: Q01DX011 (sc), vehicle: steriod suspending solution, higher = larger tumour.
[2] abbreviates: endpoint: mean tumor weight, dose: 100.0 mg/kg/injection, schedule: Q01DX011 (sc), vehicle: steriod suspending solution, higher = larger tumour.
Setting [3] is: endpoint: mean tumor weight, dose: 200.0 mg/kg/injection, schedule: Q01DX011 (sc), vehicle: steriod suspending solution, higher = larger tumour.

Values joined by “and” are separate entries in the source; they are usually repeats but may differ in a detail not shown here. Equal entries are not always repeated. Records with an inconclusive call do not appear.

Consider `COc1cc(OC)cc(-c2cc(=O)c3c(OC)c(OC)c(OC)c(OC)c3o2)c1`, for which the T/C (endpoint: mean tumor weight, dose: 25.0 mg/kg/injection, schedule: Q01DX011 (sc), vehicle: steriod suspending solution, higher = larger tumour) was 64 % of control; the T/C under setting [1] was 87 % of control; the T/C under setting [2] was 82 % of control; the T/C under setting [3] was 81 % of control.

As to `COc1ccc(-c2c(CC(=O)O)c3cc(OC)ccc3n2Cc2ccc(Cl)cc2)cc1`, the T/C by setting is: (endpoint: mean tumor weight, dose: 222.0 mg/kg/injection, schedule: Q01DX011 (ip), vehicle: other, higher = larger tumour) 164 % of control; (endpoint: mean tumor weight, dose: 333.0 mg/kg/injection, schedule: Q01DX011 (ip), vehicle: other, higher = larger tumour) 151 % of control.

On to `COc1cc2cc(c1Cl)N(C)C(=O)C[C@H](OC(=O)[C@H](C)N(C)C(C)=O)[C@]1(C)O[C@H]1[C@H](C)[C@@H]1C[C@@](O)(NC(=O)O1)[C@H](OC)C=C/C=C(\C)C2`, for which the T/C was 112 % of control (endpoint: median survival time, dose: 0.04 mg/kg/injection, schedule: Q04DX003 (ip), vehicle: saline, higher = longer survival); 102 % of control (endpoint: median survival time, dose: 0.08 mg/kg/injection, schedule: Q04DX003 (ip), vehicle: saline, higher = longer survival); 110 % of control (endpoint: median survival time, dose: 0.15 mg/kg/injection, schedule: Q04DX003 (ip), vehicle: saline, higher = longer survival); 96 % of control (endpoint: median survival time, dose: 0.6 mg/kg/injection, schedule: Q04DX003 (ip), vehicle: saline, higher = longer survival).

Regarding `CCC(=O)O[C@H]1CC[C@H]2[C@@H]3CCC4=CC(=O)CC[C@]4(C)[C@H]3CC[C@]12C`, the T/C runs as follows: (endpoint: mean tumor weight, dose: 125.0 mg/kg/injection, schedule: Q01DX011 (ip), vehicle: steriod suspending solution, higher = larger tumour) 86 % of control; (endpoint: mean tumor weight, dose: 250.0 mg/kg/injection, schedule: Q01DX011 (ip), vehicle: steriod suspending solution, higher = larger tumour) 70 % of control; (endpoint: mean tumor weight, dose: 500.0 mg/kg/injection, schedule: Q01DX011 (ip), vehicle: steriod suspending solution, higher = larger tumour) 84 % of control; (endpoint: median survival time, dose: 40.0 mg/kg/injection, schedule: Q02DX009 (ip), vehicle: Klucel (hydroxypropylcellulose) (HPC), higher = longer survival) 90 % of control; (endpoint: median survival time, dose: 80.0 mg/kg/injection, schedule: Q02DX009 (ip), vehicle: Klucel (hydroxypropylcellulose) (HPC), higher = longer survival) 97 % of control; (endpoint: median survival time, dose: 160.0 mg/kg/injection, schedule: Q02DX009 (ip), vehicle: Klucel (hydroxypropylcellulose) (HPC), higher = longer survival) 103 % of control. For the same compound, the T/C (endpoint: median survival time, dose: 320.0 mg/kg/injection, schedule: Q02DX009 (ip), vehicle: Klucel (hydroxypropylcellulose) (HPC), higher = longer survival) is 90 % of control.

For `CC(=N\O)/C(C)=N/O.CC(=N\O)/C(C)=N/O.[Pd]`, the T/C runs as follows: (endpoint: median survival time, dose: 0.75 mg/kg/injection, schedule: Q01DX009 (ip), vehicle: Klucel (hydroxypropylcellulose) (HPC), higher = longer survival) 109 % of control; (endpoint: median survival time, dose: 1.57 mg/kg/injection, schedule: Q01DX009 (ip), vehicle: Klucel (hydroxypropylcellulose) (HPC), higher = longer survival) 97 % of control.

On to `CCCC(=O)NC1=C(N2CC2)C(=O)C(NC(=O)CCC)=C(N2CC2)C1=O`, for which the T/C reads like this: (endpoint: mean tumor weight, dose: 0.8 mg/kg/injection, schedule: Q01DX011 (ip), vehicle: other, higher = larger tumour) 81 % of control; (endpoint: mean tumor weight, dose: 1.5 mg/kg/injection, schedule: Q01DX011 (ip), vehicle: other, higher = larger tumour) 42 % of control; (endpoint: mean tumor weight, dose: 3.0 mg/kg/injection, schedule: Q01DX011 (ip), vehicle: other, higher = larger tumour) 28 % of control.

On to `CC(C)[C@]1(O)CC[C@H]2[C@@H]3CCc4cc(O)ccc4[C@H]3CC[C@@]21C`, for which the T/C is 87 % of control (endpoint: mean tumor weight, dose: 2.5 mg/kg/injection, schedule: Q01DX011 (sc), vehicle: saline, higher = larger tumour); 68 % of control (endpoint: mean tumor weight, dose: 5.0 mg/kg/injection, schedule: Q01DX011 (sc), vehicle: saline, higher = larger tumour); 80 % of control (endpoint: mean tumor weight, dose: 10.0 mg/kg/injection, schedule: Q01DX011 (sc), vehicle: saline, higher = larger tumour); 51 % of control (endpoint: mean tumor weight, dose: 10.0 mg/kg/injection, schedule: Q01DX011 (sc), vehicle: steriod suspending solution, higher = larger tumour); 65 % of control (endpoint: mean tumor weight, dose: 20.0 mg/kg/injection, schedule: Q01DX011 (sc), vehicle: steriod suspending solution, higher = larger tumour); 36 % of control (endpoint: mean tumor weight, dose: 40.0 mg/kg/injection, schedule: Q01DX011 (sc), vehicle: steriod suspending solution, higher = larger tumour). Also, the T/C (endpoint: mean tumor weight, dose: 80.0 mg/kg/injection, schedule: Q01DX011 (sc), vehicle: steriod suspending solution, higher = larger tumour) is 55 % of control.

As to `Nc1ncnc2nc[nH]c12`, the T/C by setting is: (endpoint: mean tumor weight, dose: 12.5 mg/kg/injection, schedule: Q01DX011 (ip), vehicle: saline, higher = larger tumour) 101 % of control; (endpoint: mean tumor weight, dose: 25.0 mg/kg/injection, schedule: Q01DX011 (ip), vehicle: saline, higher = larger tumour) 104 % of control; (endpoint: mean tumor weight, dose: 50.0 mg/kg/injection, schedule: Q01DX011 (ip), vehicle: saline, higher = larger tumour) 84 % of control; (endpoint: mean tumor weight, dose: 100.0 mg/kg/injection, schedule: Q01DX011 (ip), vehicle: saline, higher = larger tumour) 43 % of control and 49 % of control.

With `CC(C)C(=O)[O][Sn]([c]1ccccc1)([c]1ccccc1)[c]1ccccc1`, the T/C is, setting by setting: (endpoint: median survival time, dose: 3.0 mg/kg/injection, schedule: Q01DX009 (ip), vehicle: saline with Tween-80, higher = longer survival) 110 % of control; (endpoint: median survival time, dose: 6.0 mg/kg/injection, schedule: Q01DX009 (ip), vehicle: saline with Tween-80, higher = longer survival) 106 % of control; (endpoint: median survival time, dose: 12.0 mg/kg/injection, schedule: Q01DX009 (ip), vehicle: saline with Tween-80, higher = longer survival) 97 % of control.

Turning to `CCOC(=O)C1C(=O)C(CN(CCCl)CCCl)C(=O)C(C(=O)OCC)C1c1ccc(O)cc1` (stereo not given), the T/C runs as follows: (endpoint: median survival time, dose: 3.12 mg/kg/injection, schedule: Q01DX009 (ip), vehicle: Klucel (hydroxypropylcellulose) (HPC), higher = longer survival) 94 % of control; (endpoint: median survival time, dose: 6.25 mg/kg/injection, schedule: Q01DX009 (ip), vehicle: Klucel (hydroxypropylcellulose) (HPC), higher = longer survival) 98 % of control; (endpoint: median survival time, dose: 12.5 mg/kg/injection, schedule: Q01DX009 (ip), vehicle: Klucel (hydroxypropylcellulose) (HPC), higher = longer survival) 100 % of control; (endpoint: median survival time, dose: 25.0 mg/kg/injection, schedule: Q01DX009 (ip), vehicle: Klucel (hydroxypropylcellulose) (HPC), higher = longer survival) 94 % of control.

As to `CCN(CC)CCN1C(=O)c2cccc3cccc(c23)C1=O`, the T/C was 111 % of control (endpoint: mean tumor weight, dose: 48.0 mg/kg/injection, schedule: Q01DX011 (ip), vehicle: saline, higher = larger tumour); 87 % of control (endpoint: mean tumor weight, dose: 73.0 mg/kg/injection, schedule: Q01DX011 (ip), vehicle: saline, higher = larger tumour); 69 % of control (endpoint: mean tumor weight, dose: 110.0 mg/kg/injection, schedule: Q01DX011 (ip), vehicle: saline, higher = larger tumour).

For `Cc1c2cc3c(c1O)C(=O)CC(O3)c1ccc(O)c(c1)-c1ccc(O)c(c1)C(=O)OCC1OC(O2)C(O)C(O)C1O` (stereo not given), the T/C (endpoint: median survival time, dose: 0.13 mg/kg/injection, schedule: Q01DX009 (ip), vehicle: Klucel (hydroxypropylcellulose) (HPC), higher = longer survival) is 112 % of control; the T/C (endpoint: median survival time, dose: 0.25 mg/kg/injection, schedule: Q01DX009 (ip), vehicle: Klucel (hydroxypropylcellulose) (HPC), higher = longer survival) was 102 % of control; the T/C (endpoint: median survival time, dose: 0.5 mg/kg/injection, schedule: Q01DX009 (ip), vehicle: Klucel (hydroxypropylcellulose) (HPC), higher = longer survival) is 100 % of control; the T/C (endpoint: median survival time, dose: 1.0 mg/kg/injection, schedule: Q01DX009 (ip), vehicle: Klucel (hydroxypropylcellulose) (HPC), higher = longer survival) was 101 % of control.

Take `CC(C)CCC[C@@H](C)[C@H]1CC[C@H]2[C@@H]3CC=C4C[C@@H](OC(=O)Cc5ccc(N(CCCl)CCCl)cc5)CC[C@]4(C)[C@H]3CC[C@]12C`: the T/C reads like this: under setting [1], 84 % of control; under setting [2], 76 % of control; under setting [3], 78 % of control; (endpoint: mean tumor weight, dose: 400.0 mg/kg/injection, schedule: Q01DX011 (sc), vehicle: steriod suspending solution, higher = larger tumour) 57 % of control.

`CC(=O)OC(C)(C)/C=C/C(=O)[C@](C)(O)[C@H]1[C@H](O)C[C@@]2(C)[C@@H]3CC=C4[C@@H](C[C@H](O)C(=O)C4(C)C)[C@]3(CO)C(=O)C[C@]12C`: the T/C (endpoint: mean tumor weight, dose: 0.57 mg/kg/injection, schedule: Q01DX011 (ip), vehicle: saline, higher = larger tumour) was 93 % of control.

As to `C[C@]12CC[C@H](O)CC1=CC[C@@H]1[C@@H]2CC[C@]2(C)c3nc4ccccc4cc3C[C@@H]12`, the T/C is 104 % of control (endpoint: mean tumor weight, dose: 0.2 mg/kg/injection, schedule: Q01DX011 (sc), vehicle: steriod suspending solution, higher = larger tumour); 87 % of control (endpoint: mean tumor weight, dose: 0.4 mg/kg/injection, schedule: Q01DX011 (sc), vehicle: steriod suspending solution, higher = larger tumour); 95 % of control (endpoint: mean tumor weight, dose: 0.8 mg/kg/injection, schedule: Q01DX011 (sc), vehicle: steriod suspending solution, higher = larger tumour); 117 % of control (endpoint: mean tumor weight, dose: 1.6 mg/kg/injection, schedule: Q01DX011 (sc), vehicle: steriod suspending solution, higher = larger tumour); 93 % of control (endpoint: mean tumor weight, dose: 3.25 mg/kg/injection, schedule: Q01DX011 (sc), vehicle: steriod suspending solution, higher = larger tumour); 63 % of control (endpoint: mean tumor weight, dose: 7.5 mg/kg/injection, schedule: Q01DX011 (sc), vehicle: steriod suspending solution, higher = larger tumour). In addition, the T/C runs as follows: (endpoint: mean tumor weight, dose: 15.6 mg/kg/injection, schedule: Q01DX011 (sc), vehicle: steriod suspending solution, higher = larger tumour) 70 % of control; (endpoint: mean tumor weight, dose: 31.3 mg/kg/injection, schedule: Q01DX011 (sc), vehicle: steriod suspending solution, higher = larger tumour) 43 % of control; (endpoint: mean tumor weight, dose: 60.0 mg/kg/injection, schedule: Q01DX011 (sc), vehicle: steriod suspending solution, higher = larger tumour) 95 % of control; (endpoint: mean tumor weight, dose: 62.5 mg/kg/injection, schedule: Q01DX011 (sc), vehicle: steriod suspending solution, higher = larger tumour) 91 % of control; (endpoint: mean tumor weight, dose: 90.0 mg/kg/injection, schedule: Q01DX011 (sc), vehicle: steriod suspending solution, higher = larger tumour) 83 % of control; (endpoint: mean tumor weight, dose: 125.0 mg/kg/injection, schedule: Q01DX011 (sc), vehicle: steriod suspending solution, higher = larger tumour) 52 % of control. Besides, the T/C (endpoint: mean tumor weight, dose: 500.0 mg/kg/injection, schedule: Q01DX011 (sc), vehicle: steriod suspending solution, higher = larger tumour) was 77 % of control.
